Experimental findings from patent publication US5187160A, “Cephem compound” (Fujisawa Pharmaceutical Co., Ltd., priority 1989, dated 1993) are described below.

The assay relates to P. aeruginosa 26. The assay is described as follows: In vitro antibacterial activity, two-fold agar-plate dilution method (MIC). In kind it is cell-based. The settings on record: Pseudomonas aeruginosa, heart infusion agar, 10^8 viable cells per ml, 37° C. for 20 hours, read-out: MIC (minimal inhibitory concentration). The procedure: Now in order to show the utility of the object compound [I], the test data on MIC (minimal inhibitory concentration) of representative compound [I] of this invention is shown in the following.
In vitro antibacterial activity was determined by the two-fold agar-plate dilution method as described below.
One loopful of an overnight culture of each test strain in Trypticase-soy broth (10^8 viable cells per ml) was streaked on heart infusion agar (HI-agar) containing graded concentrations of representative test compound, and the minimal inhibitory concentration (MIC) was expressed in terms of μg/ml after incubation at 37° C. for 20 hours.

Structures can show the parent of a compound that is named as a salt.

Take `CCON=C(C(=O)NC1C(=O)N2C(C(=O)[O-])=C(C[n+]3ccc(N)n3CCO)CSC12)c1csc(N)n1` (stereo not drawn) [Example 2, Sulfuric acid salt of 7β-[2-(2-aminothiazol-4-yl)-2-ethoxyiminoacetamido]-3-[3-amino-2-(2-hydroxyethyl)-1-pyrazolio]methyl-3-cephem-4-carboxylate (syn isomer)]: the MIC is 1.56 µg/mL.
